Data as given in patent US9809583B2 (priority 2014, dated 2017).
Structures can show the parent of a compound that is named as a salt.

target: androgen receptor (hAR) (Homo sapiens (Human), UniProt P10275); assay: Test of transcriptional activity (hAR / ARE-Luc dual-luciferase assay in CHO cells); assay type: cell-based; conditions: CHO cells with hAR and ARE-Luc, 24 hours; 10 nM DHT = 100%; read-out: EC50 [nM] (mean ± SE)
Description: In order to examine the transcriptional activity of the agonists of the present invention, the following in-vitro experiment was performed. CHO (Chinese hamster ovary) cell line (ATCC, #CCL-61) was seeded in a 96-well plate at a density of 1.5×10^4 cells/well, and cultured for 24 hours. Then, a plasmid hAR and plasmid ARE-Luc-mixed medium was added thereto. The transfected cell line was treated with 0.1˜10,000 nM of SARM derivatives, and then allowed to react for 24 hours.

androgen receptor (hAR), sequence (P10275 whole entry): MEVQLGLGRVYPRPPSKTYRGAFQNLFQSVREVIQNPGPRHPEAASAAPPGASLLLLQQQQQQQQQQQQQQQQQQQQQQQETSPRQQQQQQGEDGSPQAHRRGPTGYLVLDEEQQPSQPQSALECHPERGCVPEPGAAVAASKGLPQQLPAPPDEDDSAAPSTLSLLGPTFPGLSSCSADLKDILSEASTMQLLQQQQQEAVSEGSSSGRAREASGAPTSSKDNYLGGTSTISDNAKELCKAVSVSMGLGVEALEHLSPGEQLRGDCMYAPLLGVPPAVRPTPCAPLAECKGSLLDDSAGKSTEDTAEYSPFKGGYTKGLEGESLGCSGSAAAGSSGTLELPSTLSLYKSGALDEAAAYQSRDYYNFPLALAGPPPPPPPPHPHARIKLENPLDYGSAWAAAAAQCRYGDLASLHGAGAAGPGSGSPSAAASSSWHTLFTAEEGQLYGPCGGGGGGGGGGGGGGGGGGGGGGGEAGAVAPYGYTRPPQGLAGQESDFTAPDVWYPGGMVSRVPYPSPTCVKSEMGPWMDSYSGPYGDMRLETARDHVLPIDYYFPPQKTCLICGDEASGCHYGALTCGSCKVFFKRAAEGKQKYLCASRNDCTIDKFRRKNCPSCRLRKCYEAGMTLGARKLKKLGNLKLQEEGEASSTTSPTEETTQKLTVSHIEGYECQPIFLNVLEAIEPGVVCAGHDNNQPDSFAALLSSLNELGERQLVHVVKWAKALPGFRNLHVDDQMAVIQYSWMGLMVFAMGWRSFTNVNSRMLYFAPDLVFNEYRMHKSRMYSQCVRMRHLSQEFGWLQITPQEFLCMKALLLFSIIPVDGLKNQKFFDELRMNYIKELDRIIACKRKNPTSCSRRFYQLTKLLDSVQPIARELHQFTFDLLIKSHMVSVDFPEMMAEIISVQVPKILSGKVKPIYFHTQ

Point of comparison: “(2R,5S)-3-(3-chloro-4-cyanophenyl)-N-(6-cyanopyridin-3-yl)-2-(trifluoromethyl)oxazolidine-5-carboxamide [Example 120]”, EC50 11.1 nM. Against it:
- (2R,5S)-3-(4-cyano-3-(trifluoromethyl)phenyl)-N-(4-cyano-3-methoxyphenyl)-2-(trifluoromethyl)oxazolidine-5-carboxamide [Example 127] — 16-fold higher, 183 nM
- (2R,5S)-N-(4-cyano-2-fluorophenyl)-3-(3-methyl-4-nitrophenyl)-2-(trifluoromethyl)oxazolidine-5-carboxamide [Example 113] — 7.3-fold higher, 80.5 nM
- (2R,5S)-N-(6-acetamidopyridin-3-yl)-3-(4-cyano-3-(trifluoromethyl)phenyl)-2-(trifluoromethyl)oxazolidine-5-carboxamide [Example 135] — 2.2-fold lower, 4.95 nM
- Cc1cc(N2C[C@@H](COc3ccncc3)O[C@@H]2C(F)(F)F)ccc1[N+](=O)[O-] [Example 69, (2R,5S)-3-(3-methyl-4-nitrophenyl)-5-((pyridin-4-yloxy)methyl)-2-(trifluoromethyl)oxazolidine] — 7.2-fold lower, 1.54 nM
- (2R,5S)-N-(2-chloropyridin-4-yl)-3-(3-methyl-4-nitrophenyl)-2-(trifluoromethyl)oxazolidine-5-carboxamide [Example 137] — 6.3-fold lower, 1.77 nM
- Cc1cc(N2C[C@@H](COc3ccc(C#N)nc3)O[C@@H]2C(F)(F)F)ccc1[N+](=O)[O-] [Example 55, 5-(((2R,5S)-3-(3-methyl-4-nitrophenyl)-2-(trifluoromethyl)oxazolidin-5-yl)methoxy)picolinonitrile] — 2.5-fold lower, 4.49 nM
- (2R,5S)-N-(2-chloro-4-cyanophenyl)-3-(4-cyano-3-(trifluoromethyl)phenyl)-2-(trifluoromethyl)oxazolidine-5-carboxamide [Example 114] — 18-fold higher, 201 nM
- (2R,5S)-3-(3-chloro-4-cyanophenyl)-N-(pyridin-4-yl)-2-(trifluoromethyl)oxazolidine-5-carboxamide [Example 121] — 55-fold higher, 616 nM
- (2R,5S)-N-(4-acetamidophenyl)-3-(3-methyl-4-nitrophenyl)-2-(trifluoromethyl)oxazolidine-5-carboxamide [Example 112] — within 1.5-fold, 10.1 nM
- (2R,5S)-3-(3-chloro-4-nitrophenyl)-N-(6-cyanopyridin-3-yl)-2-(trifluoromethyl)oxazolidine-5-carboxamide [Example 125] — within 1.5-fold, 11.2 nM
- N#Cc1ccc(OC[C@@H]2CN(c3ccc(Cl)c(Cl)c3)[C@@H](C(F)(F)F)O2)cc1 [Example 63, 4-(((2R,5S)-3-(3,4-dichlorophenyl)-2-(trifluoromethyl)oxazolidin-5-yl)methoxy)benzonitrile] — 3.3-fold higher, 36.3 nM

same assay, conditions: EC50 [nM] (mean ± SE), CHO cells with hAR and ARE-Luc, 24 hours; 10 nM DHT = 100%

Point of comparison: N#CCC(=O)Nc1ccc(NC(=O)[C@@H]2CN(c3ccc(C#N)c(C(F)(F)F)c3)[C@@H](C(F)(F)F)O2)cc1 [Example 162, (2R,5S)-3-(4-cyano-3-(trifluoromethyl)phenyl)-N-(4-(2-cyanoacetamido)phenyl)-2-(trifluoromethyl)oxazolidine-5-carboxamide], EC50 149 nM. Against it:
- COC(=O)N1CCN(C(=O)[C@@H]2CN(c3ccc(C#N)c(Cl)c3)[C@@H](C(F)(F)F)O2)CC1 [Example 178, methyl 4-((2R,5S)-3-(3-chloro-4-cyanophenyl)-2-(trifluoromethyl)oxazolidine-5-carbonyl)piperazine-1-carboxylate] — 7-fold lower, 21.2 nM
- N#Cc1ccc(NC(=O)[C@@H]2CN(c3ccc(C#N)c(C(F)(F)F)c3)[C@@H](C(F)(F)F)O2)c(F)c1 [Example 139, (2R,5S)-N-(4-cyano-2-fluorophenyl)-3-(4-cyano-3-(trifluoromethyl)phenyl)-2-(trifluoromethyl)oxazolidine-5-carboxamide] — 54-fold lower, 2.74 nM
- N#Cc1ccc(N2C[C@@H](COc3cccnc3)O[C@@H]2C(F)(F)F)cc1C(F)(F)F [Example 60, 4-((2R,5S)-5-((pyridin-3-yloxy)methyl)-2-(trifluoromethyl)oxazolidin-3-yl)-2-(trifluoromethyl)benzonitrile] — 14-fold lower, 10.4 nM
- Cc1c(N2C[C@@H](COc3ccc(C#N)cc3)O[C@@H]2C(F)(F)F)ccc(C#N)c1Cl [Example 75, 2-chloro-4-((2R,5S)-5-((4-cyanophenoxy)methyl)-2-(trifluoromethyl)oxazolidin-3-yl)-3-methylbenzonitrile] — 4-fold lower, 37 nM
- COC(=O)Nc1ccc(NC(=O)[C@@H]2CN(c3ccc(C#N)c(C(F)(F)F)c3)[C@@H](C(F)(F)F)O2)cc1 [Example 157, methyl(4-((2R,5S)-3-(4-cyano-3-(trifluoromethyl)phenyl)-2-(trifluoromethyl)oxazolidine-5-carboxamido)phenyl)carbamate] — 1.6-fold higher, 231 nM
- Cc1c(N2C[C@@H](COc3ccncc3)O[C@@H]2C(F)(F)F)ccc(C#N)c1Cl [Example 76, 2-chloro-3-methyl-4-((2R,5S)-5-((pyridin-4-yloxy)methyl)-2-(trifluoromethyl)oxazolidin-3-yl)benzonitrile] — 6.8-fold lower, 21.8 nM
- N#Cc1ccc(N2C[C@@H](C(=O)N3CCN(C#N)CC3)O[C@@H]2C(F)(F)F)cc1C(F)(F)F [Example 174, 4-((2R,5S)-3-(4-cyano-3-(trifluoromethyl)phenyl)-2-(trifluoromethyl)oxazolidine-5-carbonyl)piperazine-1-carbonitrile] — within 1.5-fold, 139 nM
- N#Cc1ccc(N2C[C@@H](COc3ccncc3)O[C@@H]2C(F)(F)F)cc1Cl [Example 72, 2-chloro-4-((2R,5S)-5-((pyridin-4-yloxy)methyl)-2-(trifluoromethyl)oxazolidin-3-yl)benzonitrile] — 140-fold lower, 1.03 nM
- CC(C)C(=O)Nc1ccc(NC(=O)[C@@H]2CN(c3ccc(C#N)c(C(F)(F)F)c3)[C@@H](C(F)(F)F)O2)cc1 [Example 159, (2R,5S)-3-(4-cyano-3-(trifluoromethyl)phenyl)-N-(4-isobutylamidophenyl)-2-(trifluoromethyl)oxazolidine-5-carboxamide] — 1.9-fold higher, 288 nM
- CC(=O)N1CCC(NC(=O)[C@@H]2CN(c3ccc(C#N)c(C(F)(F)F)c3)[C@@H](C(F)(F)F)O2)CC1 [Example 170, (2R,5S)-N-(1-acetylpiperidin-4-yl)-3-(4-cyano-3-(trifluoromethyl)phenyl)-2-(trifluoromethyl)oxazolidine-5-carboxamide] — 24-fold higher, 3560 nM
- N#Cc1ccc(N2C[C@@H](COc3ccnc(Cl)c3)O[C@@H]2C(F)(F)F)cc1C(F)(F)F [Example 68, 4-((2R,5S)-5-(((2-chloropyridin-4-yl)oxy)methyl)-2-(trifluoromethyl)oxazolidin-3-yl)-2-(trifluoromethyl)benzonitrile] — 25-fold lower, 6.06 nM
- N#Cc1ccc(N2C[C@@H](COc3ccc(CN)cc3)O[C@@H]2C(F)(F)F)cc1C(F)(F)F [Example 89, 4-((2R,5S)-5-((4-(aminomethyl)phenoxy)methyl)-2-(trifluoromethyl)oxazolidin-3-yl)-2-(trifluoromethyl)benzonitrile hydrochloride] — 4.4-fold lower, 34.2 nM
- N#Cc1ccc(N2C[C@@H](COc3ccc(CC(=O)O)cc3)O[C@@H]2C(F)(F)F)cc1C(F)(F)F [Example 52, 2-(4-(((2R,5S)-3-(4-cyano-3-(trifluoromethyl)phenyl)-2-(trifluoromethyl)oxazolidin-5-yl)methoxy)phenyl)acetic acid] — 5.1-fold higher, 759 nM
- N#Cc1ccc(NC(=O)[C@@H]2CN(c3ccc(C#N)c(C(F)(F)F)c3)[C@@H](C(F)(F)F)O2)cc1F [Example 147, (2R,5S)-3-(4-cyano-3-(trifluoromethyl)phenyl)-N-(4-cyano-3-fluorophenyl)-2-(trifluoromethyl)oxazolidine-5-carboxamide] — 5.2-fold higher, 768 nM
- CO/N=C/c1ccc(OC[C@@H]2CN(c3ccc(C#N)c(C(F)(F)F)c3)[C@@H](C(F)(F)F)O2)cc1 [Example 85, 4-((2R,5S)-5-((4-((E)-(methoxyimino)methyl)phenoxy)methyl)-2-(trifluoromethyl)oxazolidin-3-yl)-2-(trifluoromethyl)benzonitrile] — 15-fold lower, 9.84 nM
- N#Cc1ccc(OC[C@@H]2CN(c3ccc(C#N)c(Cl)c3)[C@@H](C(F)(F)F)O2)cn1 [Example 73, 5-(((2R,5S)-3-(3-chloro-4-cyanophenyl)-2-(trifluoromethyl)oxazolidin-5-yl)methoxy)picolinonitrile] — 150-fold lower, 0.991 nM
- Cc1c(N2C[C@@H](COc3ccc(/C=N/O)cc3)O[C@@H]2C(F)(F)F)ccc(C#N)c1Cl [Example 78, 2-chloro-4-((2R,5S)-5-((4-((E)-(hydroxyimino)methyl)phenoxy)methyl)-2-(trifluoromethyl)oxazolidin-3-yl)-3-methylbenzonitrile] — 30-fold lower, 4.91 nM
- N#Cc1ccc(N2C[C@@H](C(=O)Nc3ccc([N+](=O)[O-])cc3)O[C@@H]2C(F)(F)F)cc1C(F)(F)F [Example 155, (2R,5S)-3-(4-cyano-3-(trifluoromethyl)phenyl)-N-(4-nitrophenyl)-2-(trifluoromethyl)oxazolidine-5-carboxamide] — 5.5-fold higher, 823 nM
- N#Cc1ccc(N2C[C@@H](COc3ccc(/C=N/O)cc3)O[C@@H]2C(F)(F)F)cc1Cl [Example 74, 2-chloro-4-((2R,5S)-5-((4-((E)-(hydroxyimino)methyl)phenoxy)methyl)-2-(trifluoromethyl)oxazolidin-3-yl)benzonitrile] — 230-fold lower, 0.658 nM
- N#Cc1ccc(N2C[C@@H](C(=O)Nc3ccc([N+](=O)[O-])cc3F)O[C@@H]2C(F)(F)F)cc1C(F)(F)F [Example 104] — 6-fold lower, 24.9 nM
- N#Cc1ccc(N2C[C@@H](COc3ccncc3)O[C@H]2C(F)(F)F)cc1C(F)(F)F [Example 80, 4-((2S,5S)-5-((pyridin-4-yloxy)methyl)-2-(trifluoromethyl)oxazolidin-3-yl)-2-(trifluoromethyl)benzonitrile] — 4.4-fold lower, 34 nM
